Earlier results as cited in patent US20260275225A1, “LIQUID ALKYLATED PHENYL-ALPHA-NAP[…] REDUCED AQUATIC TOXICITY” (BASF SE, priority 2023, published 2026).
Converted amounts (≈) assume the structure as drawn.

System: daphnids
Conditions: OECD Test 202; from commercially available Amine A safety data sheets

c1ccc(Nc2cccc3ccccc23)cc1 [Amine A, n-Phenyl-1-naphthylamine]
EC50: 0.32 µg/mL (≈ 1.46 µM)
